Assay results reported in patent US20080299109A1, “MECHANISM OF ASTRICYTE-NEURON SIGNALING” (Korea Institute of Science and Technology, priority 2007, published 2008).

Experiments:
[1] = tested on: cultured wild-type mouse astrocytes; assay: Fura-2 intracellular Ca2+ imaging in cultured wild-type astrocytes; type: cell-based; conditions: 30 μM TFLLR; for level of astrocytic intracellular Ca^2+ (Fura-2 fluorescence ratio): 10 μM bradykinin, 50 μM 2-methyl-thio-ATP, 10 μM ATP, 30 nM thrombin; for effect on TFLLR-induced Ca^2+ response: 1 μM BMS200261, 1 μM thapsigargin, 50 μM BAPTA-AM 30 min, 2 μM U-73122 10 min
Procedure: Cultured astrocytes were prepared from P0-P3 postnatal mice obtained from KIST SPF. The cerebral cortex was dissected free of adherent meninges, minced, and dissociated into single cell suspension by trituration through a Pasteur pipette. All procedures involving the use of animals were reviewed and approved by the Emory University IACUC. Dissociated cells were plated onto either 12 mm glass coverslips or 6 well plates coated with 0.1 mg/ml poly-D-lysine. Cells were grown in a DMEM media (Gibco, cat# 11960-044) supplemented with 25 mM glucose, 10% heat-inactivated horse serum, and 10% heat-inactivated fetal bovine serum, 2 mM glutamine, and 1000 units/ml penicillin-streptomycin. Cultures were maintained at 37° C. in a humidified 5% CO2-containing atmosphere. […] In some experiments, the culture media was replaced 24 hours after plating with DMEM with all added components except glutamine, and cultures were maintained for 4 days before experimentation in glutamine-free media.
Cultured astrocytes were incubated with 5 µM Fura2-AM in […] pluronic acid (Molecular Probes) for 30 min at room temperature, and subsequently transferred to a microscope stage for imaging. The external solution contained 150 mM NaCl, 10 mM HEPES, 3 mM KCl, 2 mM CaCl2, 2 mM MgCl2, and 5.5 mM glucose, and the pH was adjusted to pH 7.3 and osmolarity to 325 mOsm. Intensity images of a 510 nm wavelength were taken at 340 nm and 380 nm excitation wavelengths using either a Micromax Camera (Princeton) or an intensified video camera (PTI), and the two resulting images were used for ratio calculations using Axon Imaging Workbench version 2.2.1.

CA1 pyramidal neurons = assay: Ca2+ dye imaging of CA1 pyramidal neurons in hippocampal slices; type: cell-based, rat; conditions: thrombin 30 nM, TFLLR 30 μM, trans-ACPD 100 μM, (S)-3,5-dihydroxyphenylglycine 30 μM
Procedure: Young rats (Sprague-Dawley, age P15-P20) or mice (C57/B16, age P14-19) were deeply anesthetized with isoflurane and decapitated. The brain was rapidly removed and submerged in an ice-cold oxygenated artificial cerebrospinal fluid (ACSF) comprised of 130 mM NaCl, 24 mM NaHCO3, 3.5 mM KCl, 1.25 mM NaH2PO4, 1 mM CaCl2,3 mM MgCl2, and 10 mM glucose saturated with 95% O2/5% CO2, at pH 7.4.
The external solution contained 1 μM TTX. Throughout the experiments, −5 mV voltage steps (15 ms duration) were applied at 30 sec intervals from a holding potential of −70 mV to continuously monitor the holding current, series resistance, and membrane input resistance. After entering whole-cell mode, the CA1 pyramidal cells in slices were maintained for 20 min to allow for dye filling before image acquisition using a Princeton Micromax camera.
After the baseline period, TFLLR (30-100 μM) was applied, and images were acquired every 3 sec with a 25 ms exposure to 450-490 nm light for each image. Ca^2+-dependent fluorescence intensity (520 nm) was measured in cell bodies and processes by using Axon Imaging Workbench (v2.2.1) and expressed as ratio image of (F-Fo)/Fo, where Fo is the fluorescence intensity before drug treatment.

PAR1−/− mouse astrocytes = assay: Fura-2 intracellular Ca2+ imaging in cultured PAR1−/− astrocytes; type: cell-based; conditions: 30 μM TFLLR, 30 nM thrombin, 10 μM ATP positive control
Procedure: Cultured astrocytes were prepared from P0-P3 postnatal mice obtained from KIST SPF. The cerebral cortex was dissected free of adherent meninges, minced, and dissociated into single cell suspension by trituration through a Pasteur pipette. All procedures involving the use of animals were reviewed and approved by the Emory University IACUC. Dissociated cells were plated onto either 12 mm glass coverslips or 6 well plates coated with 0.1 mg/ml poly-D-lysine. Cells were grown in a DMEM media (Gibco, cat# 11960-044) supplemented with 25 mM glucose, 10% heat-inactivated horse serum, and 10% heat-inactivated fetal bovine serum, 2 mM glutamine, and 1000 units/ml penicillin-streptomycin. Cultures were maintained at 37° C. in a humidified 5% CO2-containing atmosphere. Astrocyte cultures prepared in this way were previously determined by GFAP (glial fibrillary acidic protein) staining to be greater than 95% astrocytes (Nicole et al., 2005). In some experiments, the culture media was replaced 24 hours after plating with DMEM with all added components except glutamine, and cultures were maintained for 4 days before experimentation in glutamine-free media.
Cultured astrocytes were incubated with 5 µM Fura2-AM in […] pluronic acid (Molecular Probes) for 30 min at room temperature, and subsequently transferred to a microscope stage for imaging. […]

wild-type astrocytes = assay: Sniffer-patch detection of glutamate release, GluR1(L497Y)-transfected HEK cells on wild-type astrocytes; type: cell-based, mouse
Procedure: HEK 293 cells (ATCC1573) were plated onto 12 mm glass coverslips coated with 5-10 ug/ml poly-D-lysine and grown in a DMEM media (Gibco, cat# 11960-044) supplemented with 25 mM glucose, 10% heat-inactivated horse serum, and 10% heat-inactivated fetal bovine serum, 2 mM glutamine, and 1000 units/ml penicillin-streptomycin (Banke & Traynelis, 2000; Traynelis & Wahl, 1996). The obtained cultures were maintained at 37° C. in a humidified 5% CO2-containing atmosphere.
HEK 293 cells were transfected with a 1:3.5 ratio of GFP and GluR1(L497Y) using the calcium phosphate method using effectence for 6-8 hours, after which the media was replaced and supplemented with 1 mM kynurenic acid and 10 μM N-(4-hydroxyphenylpropanoyl) spermine or 10 μM CNQX. The transfected HEK cells were subsequently trypsinized and replated onto astrocyte feeder layers derived from either wild-type or PAR1−/− mice 24 hours post-transfection, and recordings performed 24 hours after replating.
(§1) Whole-cell perforated-patch recording from cultured cortical neurons or HEK cells under voltage clamp (holding potential −60 mV) was made with an Axopatch 200B amplifier (Axon Instruments, Union City, Calif.). The recording chamber was continually perfused with a recording solution comprised of 150 mM NaCl, 3 mM KCl, 2 mM CaCl2, 5.5 mM glucose, and 10 mM HEPES (pH 7.4 by NaOH; osmolality adjusted to 315-320 mOsm with sucrose). Recording electrodes (4-7 MΩ) were filled with (in mM) 150 mM CsMeSO4, 10 mM NaCl, 0.5 CaCl2, 10 mM HEPES, and 25-50 μg/ml gramicidin D (pH adjusted to 7.3 with CsOH and osmolality adjusted to 310 mOsm with sucrose). It took 20-30 min to achieve acceptable perforation with series resistance ranging from 30-60 MΩ. All electrophysiological data from cultured neurons cells in this study were collected at room temperature (23-26° C.).
Thus, this technique provides millisecond time resolution for the detection of micromolar levels of glutamate released from astrocytes.
GluR1(L497Y)-transfected HEK cells were directly plated onto an astrocyte monolayer, and subsequently the whole cell HEK current response under voltage clamp during a brief 0.2 sec application of the PAR1 activator TFLLR (500 μM), ATP (300 μM), or bradykinin (180 μM), respectively, from a pressurized pipette was recorded (FIGS. 5a, and 5b).
Concentration(t)=EC50[response(t)/(100−response(t))]^(1/n) (Formula 1)

cultured astrocytes = assay: 3H-glutamate release assay in cultured wild-type astrocytes; type: cell-based, mouse; conditions: 50 μM BAPTA-AM 30 min; 50 μM trans-PDC present or absent
Procedure: Astrocytes obtained in the above Example 1.1 were loaded with 0.5 μM L-3H-glutamate for 60 min by adding […] of 1 mCi/ml L-3H-glutamate stock solution to 2 ml of DMEM culture media.
Cells were washed with an external solution 3 times.
Agonists (TFLLR 30 μM) were added to the external solution for 6 min and the experiment was terminated by collection of the solution. Each experimental run included a control condition in which no agonist was added. Six replicates were obtained for each drug condition. For analysis, the average radioactivity count was obtained from 6 replicates for each condition and this average was compared to the average of the control condition.
Cells were washed with an external solution and subsequently TFLLR (30 μM) was added for 6 min. […] In the top panel, the thick boxes represent cells in culture media and the white boxes represent cells in external solution.

cultured neurons = assay: Sniffer-patch glutamate release from cultured neurons; type: cell-based; conditions: 10 μM CNQX, 530 mOsm
Procedure: To verify this prediction, effects of a hyperosmotic solution on the glutamate-release from cultured neurons and astrocytes were evaluated and are shown in FIGS. 7a to 7c.
The detection is abolished by the treatment of 10 μM CNQX.

[2] = tested on: PAR1−/− cortical neurons on wild-type astrocyte monolayer; assay: PAR1−/− cortical neurons co-cultured on wild-type astrocytes: dendritic Ca2+ and voltage clamp; type: cell-based, mouse; conditions: 300 μM TFLLR pressure-applied to astrocytes; 50 μM NMDA
Procedure: For an astrocyte-neuron co-culture, a monolayer of wild-type astrocytes was grown to 70-100% confluency (7-14 days in culture). Subsequently, the cortex from a P0 to P5 PAR1−/− mouse (Connolly et al., 1996) was dissected free of meninges and digested for 30 min in 1 mg/ml trypsin at 37° C. PAR1−/− mice were >99% C57B1/6 (>7 backcrossings), and wild-type mice were from a colony derived from PAR1−/− littermates.
All experiments were done within 3 generations of establishing the homozygous colony. The cortical cells were plated at low density on top of the monolayer of wild-type astrocytes obtained in above Example 1.1. Neurons were used for Ca^2+ imaging after 1-5 days in culture.
as §1
After a 20 min recovery, the bath perfusion was stopped and TFLLR was applied by brief (<1 sec) pressure ejection onto the astrocyte hosting the dye-loaded neuron in a static bath condition. Changes in fluorescence were monitored in a number of dendritic processes (schematized in FIGS. 8a and 8b).

GluR1(L497Y) = target: T1, GluR1(L497Y) (Rattus norvegicus, UniProt P19490, L497Y); assay: Glutamate activation of GluR1(L497Y) in transfected HEK cells; type: cell-based
T1 construct: expressed in transfected cells; host or cells: HEK 293 cells (ATCC1573)
Procedure: HEK 293 cells were transfected with a 1:3.5 ratio of GFP and GluR1(L497Y) using the calcium phosphate method using effectence for 6-8 hours, after which the media was replaced and supplemented with 1 mM kynurenic acid and 10 μM N-(4-hydroxyphenylpropanoyl) spermine or 10 μM CNQX.
as §1

glutamate transporters = conditions: read-out: IC50 glutamate uptake block; Mitrovic & Johnston, 1994; cited from earlier work

T1 sequence (P19490 19-907 L497Y): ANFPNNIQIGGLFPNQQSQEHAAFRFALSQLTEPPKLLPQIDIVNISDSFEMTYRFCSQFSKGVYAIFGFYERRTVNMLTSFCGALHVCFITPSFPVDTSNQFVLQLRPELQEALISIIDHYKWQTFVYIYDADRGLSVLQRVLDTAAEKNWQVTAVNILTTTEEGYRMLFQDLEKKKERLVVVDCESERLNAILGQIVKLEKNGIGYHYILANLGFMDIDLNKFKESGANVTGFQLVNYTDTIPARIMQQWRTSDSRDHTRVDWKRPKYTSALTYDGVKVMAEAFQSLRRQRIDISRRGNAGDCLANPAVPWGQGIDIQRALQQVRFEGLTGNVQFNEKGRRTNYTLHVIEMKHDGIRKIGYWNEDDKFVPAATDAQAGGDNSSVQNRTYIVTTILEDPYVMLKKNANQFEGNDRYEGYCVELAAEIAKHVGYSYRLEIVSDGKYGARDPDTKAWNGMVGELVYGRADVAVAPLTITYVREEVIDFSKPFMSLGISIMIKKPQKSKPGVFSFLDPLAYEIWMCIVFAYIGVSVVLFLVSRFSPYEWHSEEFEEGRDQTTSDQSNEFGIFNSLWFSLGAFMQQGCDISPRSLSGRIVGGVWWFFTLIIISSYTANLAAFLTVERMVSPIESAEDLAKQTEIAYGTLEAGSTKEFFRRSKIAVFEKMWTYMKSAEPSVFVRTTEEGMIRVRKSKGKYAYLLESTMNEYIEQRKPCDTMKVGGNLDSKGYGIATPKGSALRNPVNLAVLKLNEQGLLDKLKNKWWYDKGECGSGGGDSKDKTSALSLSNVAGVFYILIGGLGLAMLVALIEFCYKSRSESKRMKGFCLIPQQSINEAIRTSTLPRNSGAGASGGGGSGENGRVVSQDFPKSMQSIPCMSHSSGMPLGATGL

CSc1nc(N)c2ncn([C@@H]3O[C@H](COP(=O)(O)OP(=O)(O)OP(=O)(O)O)[C@@H](O)[C@H]3O)c2n1 [2-methyl-thio-ATP]
level of astrocytic intracellular Ca^2+ (Fura-2 fluorescence ratio) [1]: increase

N[C@H](C(=O)O)c1cc(O)cc(O)c1 [(S)-3,5-dihydroxyphenylglycine]
somatic fluorescence of Ca^2+-sensitive dyes in CA1 pyramidal neurons (CA1 pyramidal neurons): strong increases

Nc1ncnc2c1ncn2[C@@H]1O[C@H](COP(=O)(O)OP(=O)(O)OP(=O)(O)O)[C@@H](O)[C@H]1O [ATP]
level of astrocytic intracellular Ca^2+ (Fura-2 fluorescence ratio) [1]: increase | intracellular Ca^2+ concentration in PAR1−/− astrocytes (PAR1−/− mouse astrocytes): still responded | inward current in adjacent GluR1(L497Y)-transfected HEK cell (wild-type astrocytes; brief pressure application 500 μM TFLLR, 300 μM ATP, 180 μM bradykinin): elicited an inward current | peak glutamate concentration (wild-type astrocytes; wild-type astrocytes, converted from current by Formula 1): ~5.9 µM

CC(=O)OCOC(=O)CN(CC(=O)OCOC(C)=O)c1ccccc1OCCOc1ccccc1N(CC(=O)OCOC(C)=O)CC(=O)OCOC(C)=O [BAPTA-AM, 1,2-bis(2-aminophenoxy)ethane-N,N,N′,N′-tetra-acetic acid acetoxymethyl ester]
effect on TFLLR-induced glutamate release (cultured astrocytes): blocked

N#Cc1cc2[nH]c(=O)c(=O)[nH]c2cc1[N+](=O)[O-] [CNQX]
effect on TFLLR-evoked inward current in GluR1(L497Y) HEK cell (wild-type astrocytes; 10 μM CNQX): reversibly inhibits | effect on TFLLR-evoked inward currents, glutamine-free medium (wild-type astrocytes; glutamine-free medium): completely abolished | effect on detection of hyperosmotic-solution evoked neuronal glutamate release (cultured neurons): abolished

CN[C@H](CC(=O)O)C(=O)O [NMDA, N-methyl-D-aspartic acid]
intra-neuronal Ca^2+ in dendrites (Oregon Green BAPTA-2 fluorescence) [2]: saturating response

COc1ccc2c(c1)CC[C@@H]1[C@@H]2CC[C@]2(C)[C@@H](NCCCCCCN3C(=O)C=CC3=O)CC[C@@H]12 [U-73122]
effect on TFLLR-induced Ca^2+ response [1]: similarly blocked

N[C@@H](CCC(=O)O)C(=O)O [glutamate]
Hill slope (GluR1(L497Y)): 1.3

C/C=C(/C)C(=O)O[C@H]1C(C)=C2[C@H]([C@@H]1OC(=O)CCCCCCC)[C@@](C)(OC(C)=O)C[C@H](OC(=O)CCC)[C@@]1(O)[C@H]2OC(=O)[C@@]1(C)O [thapsigargin]
effect on TFLLR-induced Ca^2+ response [1]: blocked

O=C(O)[C@H]1CN[C@H](C(=O)O)C1 [trans-PDC, L-transpyrrolidine-2,4-dicarboxylic acid]
effect on TFLLR-induced glutamate release (cultured astrocytes): indistinguishable | IC50 (glutamate transporters): 4 to 8 µM

trans-Cinnamoyl-F(f)-F(Gn)L-Arg-Arg-NH2 [BMS 200261]
effect on TFLLR-induced Ca^2+ response [1]: reversibly and completely antagonized
